Target: T1, sGC enzyme (Homo sapiens, UniProt Q02108+Q02153)
T1 construct: sGC enzyme activity values in HEK cells, determined by the GloSensor assay; host or cells: HEK293 cells stably expressing GloSensor 40F cGMP biosensor
T1 sequence (Q02153 1-619): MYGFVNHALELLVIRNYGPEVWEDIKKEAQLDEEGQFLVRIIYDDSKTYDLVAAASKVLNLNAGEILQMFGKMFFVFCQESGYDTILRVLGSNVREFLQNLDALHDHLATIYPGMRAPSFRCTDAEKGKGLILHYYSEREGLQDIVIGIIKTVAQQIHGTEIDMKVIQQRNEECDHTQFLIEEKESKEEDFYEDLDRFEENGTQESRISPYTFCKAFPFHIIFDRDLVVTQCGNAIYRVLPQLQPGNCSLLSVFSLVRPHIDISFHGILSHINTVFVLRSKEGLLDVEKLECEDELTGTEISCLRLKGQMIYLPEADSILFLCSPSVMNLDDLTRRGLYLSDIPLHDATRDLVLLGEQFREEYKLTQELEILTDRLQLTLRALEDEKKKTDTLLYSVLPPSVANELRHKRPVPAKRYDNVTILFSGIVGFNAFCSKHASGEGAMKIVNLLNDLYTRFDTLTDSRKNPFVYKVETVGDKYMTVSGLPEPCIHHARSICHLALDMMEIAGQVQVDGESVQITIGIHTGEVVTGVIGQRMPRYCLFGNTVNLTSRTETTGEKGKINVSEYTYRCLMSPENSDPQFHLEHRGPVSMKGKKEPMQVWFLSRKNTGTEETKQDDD
T1 sequence (Q02108 1-690): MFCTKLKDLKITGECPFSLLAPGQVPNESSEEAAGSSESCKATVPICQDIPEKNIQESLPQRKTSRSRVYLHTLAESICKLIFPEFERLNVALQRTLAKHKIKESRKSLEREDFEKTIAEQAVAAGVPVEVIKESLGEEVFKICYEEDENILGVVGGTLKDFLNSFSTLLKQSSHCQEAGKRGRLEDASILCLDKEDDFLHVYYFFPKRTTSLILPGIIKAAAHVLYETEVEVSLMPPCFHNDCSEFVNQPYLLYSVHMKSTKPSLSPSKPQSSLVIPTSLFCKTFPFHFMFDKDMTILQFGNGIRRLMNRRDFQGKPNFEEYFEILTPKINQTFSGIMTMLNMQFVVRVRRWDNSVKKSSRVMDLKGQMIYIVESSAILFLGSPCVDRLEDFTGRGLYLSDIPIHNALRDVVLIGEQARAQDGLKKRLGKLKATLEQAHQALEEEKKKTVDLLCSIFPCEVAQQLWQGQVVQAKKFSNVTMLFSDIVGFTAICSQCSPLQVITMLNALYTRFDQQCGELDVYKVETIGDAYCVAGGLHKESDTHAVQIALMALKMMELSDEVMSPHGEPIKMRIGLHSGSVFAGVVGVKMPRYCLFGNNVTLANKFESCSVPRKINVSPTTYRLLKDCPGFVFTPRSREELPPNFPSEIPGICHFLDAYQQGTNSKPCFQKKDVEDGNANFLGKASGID
Test: cGMP GloSensor cell-based assay, 384-well format (Example 2a)
Conditions: HEK293 GloSensor 40F cGMP cells; 10 μM DETA-NONOate; 50% of high control (30 μM Compound Y); read-out: Abs EC50
Procedure, shortened: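 HEK293 cells expressing GloSensor 40F cGMP biosensor, pre-equilibrated with GloSensor substrate 90 min at 25 °C, then given compound (final 0.029–30000 nM) plus 10 μM DETA-NONOate; luminescence read after 55 min at room temperature. Normalized to 1% DMSO (low) and 30 μM Compound Y (high); Abs EC50 from 4-parameter fit, n=2, geometric mean.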

Compound | EC50 [µM]
Fc1ccccc1Cc1nc(-c2nc(C(F)(F)F)n[nH]2)cn2ccnc12 [Compound I-1, 8-(2-fluorobenzyl)-6-(3-(trifluoromethyl)-1H-1,2,4-triazol-5-yl)imidazo[1,2-a]pyrazine] | ≤ 0.1
Fc1cccc(Cc2nc(-c3nc(C(F)(F)F)n[nH]3)cn3ccnc23)c1 [Compound I-2, 8-(3-Fluorobenzyl)-6-(3-(trifluoromethyl)-1H-1,2,4-triazol-5-yl)imidazo[1,2-a]pyrazine] | ≤ 0.1
Fc1cccc(Cc2nc(-c3nc(C(F)F)n[nH]3)cn3ccnc23)c1 [Compound I-3, 6-(3-(Difluoromethyl)-1H-1,2,4-triazol-5-yl)-8-(3-fluorobenzyl)imidazo[1,2-a]pyrazine] | 0.1 to 1
Fc1cccc(Cc2nc(-c3nc(C(F)(F)F)n[nH]3)cn3ccnc23)c1F [Compound I-10, 8-(2,3-Difluorobenzyl)-6-(3-(trifluoromethyl)-1H-1,2,4-triazol-5-yl)imidazo[1,2-a]pyrazine] | ≤ 0.1
Fc1cccc(Cc2nc(-c3nc(C(F)F)n[nH]3)cn3ccnc23)c1F [Compound I-11, 8-(2,3-Difluorobenzyl)-6-(3-(difluoromethyl)-1H-1,2,4-triazol-5-yl)imidazo[1,2-a]pyrazine] | 0.1 to 1
Fc1ccccc1Cc1nc(-c2nc(C(F)F)n[nH]2)cn2ccnc12 [Compound I-14, 8-(2-Fluorobenzyl)-6-(3-(difluoromethyl)-1H-1,2,4-triazol-5-yl)imidazo[1,2-a]pyrazine] | ≤ 0.1
Fc1ccccc1Cc1nc(-c2nc(C(F)(F)F)n[nH]2)cn2ncnc12 [Compound I-16, 8-(2-Fluorobenzyl)-6-(3-(trifluoromethyl)-1H-1,2,4-triazol-5-yl)-[1,2,4]triazolo[1,5-a]pyrazine] | ≤ 0.1
